# Source: patent US11707474B2, “Methods for treating acute myeloid leukemia and related conditions” (GlycoMimetics, Inc., priority 2018, dated 2023)
# Read-outs that look alike come from different tables or passages of the source.
# Columns and labels:
# [1] = Radiation induced mucositis assay; type: in vivo, Mice (C57bl/6); conditions: 8.0 Gy whole body irradiation; 20 mg/kg IP BID 6 days
# Method: Mice (C57bl/6) were subjected to whole body irradiation (8.0 Gy) and immediately afterwards treated with a compound of Formula (I) (20 mg/kg in saline, IP, BID (i.e. 40 mg/kg per day)) or saline alone (0.15 M NaCl) for 6 days. The small intestine was removed at day 6 and digested to release cells. The number of CD11b^+F4/80^+ macrophages from the small intestine was determined by flow cytometry (FIG. 2).
# KG1 cells = assay: Systemic KG1 AML model survival; type: in vivo, NSG female mice
# Method: The potential relevance of these in vitro observations was assessed in NSG female mice with pre-existing disseminated KG1 cells and treated with a compound of Formula (I) (40 mg/kg, IP, QD for 14 days), 5-azacytidine (5 mg/kg, IP, administered on days 7, 10, 13, 16, and 19 (5 doses total)), or the combination of both compounds. Under the conditions of the assay, the median survival time of mice treated with saline alone or a compound of Formula (I) was 69.5 and 69 days, respectively (FIG. 9). Administration of a compound of Formula (I) with 5-azacytidine increased median survival time beyond that obtained with 5-azacytidine treatment alone (>104 days versus 88 days; P=0.014, FIG. 9).
# human AML blasts = assay: Orthotopic model of human AML with cytarabine and DNR; type: in vivo, NOD-SCID mice
# Method: The impact of a compound of Formula (I) on survival was evaluated in NOD-SCID mice in an orthotopic model of human AML in combination with cytarabine and DNR.
# 10 mg/kg per day was identified as the minimally active murine dose that augmented cytarabine and DNR survival benefits.
# U937 = assay: Systemic U-937 AML mouse survival model; type: in vivo, NOD/SCID mouse
# Method: A compound of Formula (I) in combination with cytarabine/DNR chemotherapy was evaluated in the systemic U-937 AML NOD/SCID mouse survival model.
# The U937 cell line was chosen because the cells express the E-selectin ligand and react with antibody HECA-452. After engraftment, mice were randomized into 4 groups (n=10/group) and treatment was initiated. The groups included a saline control group; a group administered the compound of Formula (I) at 40 mg/kg BID (i.e., 80 mg/kg per day) for 9 days, a group administered cytarabine at 300 mg/kg QD (i.e., 300 mg/kg per day) for 3 days and a single dose of DNR at 3 mg/kg; and a group administered the combined regimen of the compound of Formula (I) and chemotherapy (cytarabine and DNR).
# [2] = Pharmacokinetics of weight-based doses in AML subjects; type: in vivo, human; conditions: for AUC, Mean / AUC, Median: dose 13 to dose 15; for Cmax: human, plasma, intravenous
# Method: Three cohorts of 6-7 human subjects with acute myeloid leukemia (AML) each received a total of 15 infusions of 5, 10, or 20 mg/kg/dose over 8 days with a nominal infusion duration of 20 minutes. The first dose of a compound of Formula (I), was administered 24 hours±1 hour prior to the first dose of MEC (mitoxantrone, etoposide, and cytarabine) induction chemotherapy as a sentinel dose to evaluate the effect of the compound of Formula (I) alone, and then every 12 hours±1 hour on chemotherapy days, starting 2 hours prior to chemotherapy. […] MEC chemotherapy was administered on Days 2-6. Samples were obtained pre-dose, on Day 1, Day 3, Day 8, Day 9, and Day 10 (where Day 1 refers to the first day of dosing with a compound of Formula (I)).
# [3] = test system: relapsed/refractory (R/R) AML; assay: Exposure-response analysis for efficacy; type: in vivo, human; conditions: 46 R/R AML subjects; 5, 10, 20 mg/kg BID with MEC
# Method: To generate exposure metrics for the analyses in Example 14 and Example 15, a Pop-PK analysis, based on sampling of plasma concentrations (Cp) of the compound of Formula (I) during induction treatment, was conducted to identify an appropriate PK model, key covariates of the model, and to generate post hoc population PK metrics for all patients sampled for PK. The Pop-PK analysis comprised 59 subjects, 46 subjects diagnosed with relapsed/refractory (R/R) AML who were administered a compound of Formula (I) with MEC chemotherapy and 13 older subjects (aged 60 years or older) with newly diagnosed AML who were administered a compound of Formula (I) with 7+3 chemotherapy. Pop-PK modeling identified a three compartment model with renal function as the only significant covariate.
# For Example 14, Exposure-Response (“E-R”) analysis evaluating efficacy measures against PK metrics was conducted using clinical response efficacy data from the 46 R/R AML subjects. R/R AML subjects were administered MEC chemotherapy and 5, 10, and 20 mg/kg of a compound of Formula (I) BID (i.e. 10, 20, and 40 mg/kg per day).
# Exposure metrics were generated using the Pop-PK model described above.
# Using clinical measures of efficacy described in Example 13 each subject was assigned to one of five clinical response categories: CR, CRi, MLFS, PD, and death. […]
compound,measurement,setting,value
CC[C@@H]1CC(C(=O)NCCNC(=O)CCOCCOCCOCCOCCOCCOCCOCCOCCOCCOCCOCCOC)C[C@@H](O[C@@H]2O[C@@H](CO)[C@H](O)C(O[C@@H](CC3CCCCC3)C(=O)O)C2NC(C)=O)C1OC1O[C@@H](C)C(O)[C@H](O)[C@@H]1O (stereo partly shown) [compound of Formula (I)],CD11b+F4/80+ macrophages in small intestine,[1],decreased migration of inflammatory macrophages to the intestines
same,median survival time,KG1 cells; 40 mg/kg IP QD 14 days alone,69 days
same,median survival time,KG1 cells; 40 mg/kg IP QD 14 days with 5-azacytidine,> 104 days
same,tumor cell chemosensitivity as determined by circulating leukemic cells,human AML blasts; 5 mg/kg BID 10 days with cytarabine and DNR,marked enhancement of tumor cell chemosensitivity
same,numbers of AML blasts vs cytarabine and DNR alone,human AML blasts; 40 mg/kg with cytarabine and DNR,fewer numbers of AML blasts
same,minimally active murine dose that augmented cytarabine and DNR survival benefits,human AML blasts; with cytarabine and DNR,10 mg/kg per day
same,survival,U937; 40 mg/kg BID 9 days alone,does not extend survival beyond saline control
same,median survival time (MST),U937; 40 mg/kg BID 9 days combined with cytarabine/DNR,greater than 120 days
same,animals surviving to the end of the study,"U937; 40 mg/kg BID 9 days combined with cytarabine/DNR, n=10/group",five
same,"AUC, Mean",[2]; 5 mg/kg/dose,5.21 µg·days/mL
same,"AUC, Median",[2]; 5 mg/kg/dose,4.83 µg·days/mL
same,"AUC, Mean",[2]; 10 mg/kg/dose,9.63 µg·days/mL
same,"AUC, Median",[2]; 10 mg/kg/dose,9.63 µg·days/mL
same,"AUC, Mean",[2]; 20 mg/kg/dose,20.43 µg·days/mL
same,"AUC, Median",[2]; 20 mg/kg/dose,19.33 µg·days/mL
same,Cmax,"[2]; 5 mg/kg, 5 mg/kg/dose, read-out: Cmax, Mean",38.5 µg/mL
same,Cmax,"[2]; 5 mg/kg, 5 mg/kg/dose, read-out: Cmax, Median",36.3 µg/mL
same,Cmax,"[2]; 10 mg/kg, 10 mg/kg/dose, read-out: Cmax, Mean",79.6 µg/mL
same,Cmax,"[2]; 10 mg/kg, 10 mg/kg/dose, read-out: Cmax, Median",76.2 µg/mL
same,Cmax,"[2]; 20 mg/kg, 20 mg/kg/dose, read-out: Cmax, Mean",167 µg/mL
same,Cmax,"[2]; 20 mg/kg, 20 mg/kg/dose, read-out: Cmax, Median",153 µg/mL
same,"exposure-response for remission (Fx > IC50, Fx > IC90, Cmax, AUC vs response category)",[3],significant overlap in all exposure-response metrics relating to remission for those subjects attaining CR and those with PD
